Here are results for 11 molecules from PubChem BioAssay (NCI).

Structures are written as SMILES.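 Following 48 hours of exposure in 96-well plates, responses at five concentrations were used to interpolate endpoints linearly. Here, GI50 denotes the concentration required for 50% inhibition of growth. The concentration for full growth arrest is given as TGI.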

The subject of this assay is MDA-MB-468 breast. Nature of the assay: growth of human tumour cells (NCI), 48 h.
Regarding `OC(CNCC1CCCO1)Cn1c2ccc(Cl)cc2c2cc(Cl)ccc21` (configuration not stated), the GI50 was 1.65 µM and the TGI is 3.2 µM.
For the molecule `Cc1cc(NCc2cc(Nc3ccnc4cc(Cl)ccc34)ccc2F)nc(N2CCN(C)CC2)n1`, the GI50 is 1.7 µM and the TGI was found to be 3.52 µM.
As to `C=C(C)[C@@H]1CC[C@]2(C)[C@H](CC=C3[C@@H]4[C@@H](C)[C@H](C)CC[C@]4(C(N)=O)CC[C@]32C)[C@@]1(C)CCC#N`, the GI50 is 3.15 µM and the TGI is 12.8 µM.
On to `CC(=O)c1cccc(Nc2nc3ccc(Cl)cc3c3[nH]c4ccccc4c23)c1`, for which the GI50 was 2.84 µM and the TGI stood at 96.8 µM.
`Oc1ccccc1CNCC12CC3CC(CC(C3)C1)C2`: the GI50 was 12.8 µM and the TGI turned out to be 31.7 µM.
Take `Nc1nc2n[nH]nc2c(=O)[nH]1`: the GI50 is 0.0817 µM and the TGI is 0.792 µM.
In the case of `CCC[CH2][Sn]([CH2]CCC)([CH2]CCC)[O]C(=O)c1ccc(Cl)cc1Cl`, the GI50 is 0.133 µM and the TGI is 0.274 µM.
On to `O=C1C=CC[C@H](/C=C/c2ccccc2)O1`, for which the GI50 was 1.94 µM and the TGI was found to be 11.5 µM.
Consider `COc1ccc(/C(=N\O)c2cc(C)c(OC)c(C)c2)cc1O`, for which the GI50 is 0.0146 µM and the TGI was > 100 µM.
Regarding `COc1cc(/C=C/C(=O)c2c(C)nc3ccccc3c2/C=C/c2ccc(C)cc2)cc(OC)c1OC`, the GI50 is 1.88 µM and the TGI turned out to be 4.26 µM.
As for `COc1ccccc1N1CCN(CCc2c[nH]c3cc4c(cc23)OCO4)CC1`, the GI50 is 15.8 µM and the TGI is 44.5 µM.
